Test results taken from publication PMC6154583, “Optimized 4,5-Diarylimidazoles as Potent/Selective Inhibitors of Protein Kinase CK1δ and Their Structural Relation to p38α MAPK” (Molecules : A Journal of Synthetic Chemistry and Natural …, 2017).

Assays:
[1] = biological target: CDK19/CycC (Homo sapiens, UniProt Q9BWU1); experiment: ProQinase 33PanQinase selectivity profiling; type: biochemical; conditions: 100 nM, relative to control, read-out: Residual activity (%)
[2] = biological target: T1, CDC7/ASK (Homo sapiens, UniProt O00311); experiment: ProQinase 33PanQinase selectivity profiling; type: biochemical; conditions: 100 nM, relative to control, read-out: Residual activity (%)
T1 construct: purchased ProQinase GmbH

[3] = biological target: DCAMKL2 (Homo sapiens, UniProt Q8N568); experiment: ProQinase 33PanQinase selectivity profiling; type: biochemical; conditions: 100 nM, relative to control, read-out: Residual activity (%)
[4] = biological target: T2, EIF2AK2 (Homo sapiens, UniProt P19525); experiment: ProQinase 33PanQinase selectivity profiling; type: biochemical; conditions: 100 nM, relative to control, read-out: Residual activity (%)
T2 construct: purchased ProQinase GmbH

[5] = biological target: T3, BUB1B (Homo sapiens, UniProt O60566); experiment: ProQinase 33PanQinase selectivity profiling; type: biochemical; conditions: 100 nM, relative to control, read-out: Residual activity (%)
T3 construct: purchased ProQinase GmbH

[6] = biological target: BLK (Homo sapiens, UniProt P51451); experiment: ProQinase 33PanQinase selectivity profiling; type: biochemical; conditions: 100 nM, relative to control, read-out: Residual activity (%)
[7] = biological target: T4, BMPR1A (Homo sapiens, UniProt P36894); experiment: ProQinase 33PanQinase selectivity profiling; type: biochemical; conditions: 100 nM, relative to control, read-out: Residual activity (%)
T4 construct: purchased ProQinase GmbH

[8] = biological target: EPHA3 (Homo sapiens, UniProt P29320); experiment: ProQinase 33PanQinase selectivity profiling; type: biochemical; conditions: 100 nM, relative to control, read-out: Residual activity (%)
[9] = biological target: T5, BMX (Homo sapiens, UniProt P51813); experiment: ProQinase 33PanQinase selectivity profiling; type: biochemical; conditions: 100 nM, relative to control, read-out: Residual activity (%)
T5 construct: purchased ProQinase GmbH

[10] = biological target: BRSK2 (Homo sapiens, UniProt Q8IWQ3); experiment: ProQinase 33PanQinase selectivity profiling; type: biochemical; conditions: 100 nM, relative to control, read-out: Residual activity (%)
[11] = biological target: CSK (Homo sapiens, UniProt P41240); experiment: ProQinase 33PanQinase selectivity profiling; type: biochemical; conditions: 100 nM, relative to control, read-out: Residual activity (%)
[12] = biological target: T6, AKT1 aa106-480 (Homo sapiens, UniProt P31749); experiment: ProQinase 33PanQinase selectivity profiling; type: biochemical; conditions: 100 nM, relative to control, read-out: Residual activity (%)
T6 construct: AKT1 aa106-480; purchased ProQinase GmbH (Freiburg, Germany)

[13] = biological target: Aurora-B (Homo sapiens, UniProt Q96GD4); experiment: ProQinase 33PanQinase selectivity profiling; type: biochemical; conditions: 100 nM, relative to control, read-out: Residual activity (%)
[14] = biological target: T7, ACK1 (Homo sapiens, UniProt Q07912); experiment: ProQinase 33PanQinase selectivity profiling; type: biochemical; conditions: 100 nM, relative to control, read-out: Residual activity (%)
T7 construct: purchased ProQinase GmbH (Freiburg, Germany)

[15] = biological target: BRSK1 (Homo sapiens, UniProt Q8TDC3); experiment: ProQinase 33PanQinase selectivity profiling; type: biochemical; conditions: 100 nM, relative to control, read-out: Residual activity (%)
[16] = test system: panel of 321 protein kinases; experiment: Selectivity profiling in a panel of 321 protein kinases (ProQinase); type: biochemical; conditions: 100 nM
[17] = biological target: CAMKK1 (Homo sapiens, UniProt Q8N5S9); experiment: ProQinase 33PanQinase selectivity profiling; type: biochemical; conditions: 100 nM, relative to control, read-out: Residual activity (%)
[18] = test system: Colo357 cells; experiment: MTT viability assay; type: cell-based, human; conditions: Homo sapiens, COLO357, 48 h incubation, mean ± SD, n = 3
Experimental: (§1) The human pancreatic cancer cell lines Colo357 [61], Panc-1 [62], and MiaPaCa-2 [63] were grown in Dulbecco’s modified Eagle’s medium (DMEM). Panc89 [64] was grown in DMEM:RPMI-1640 medium in ratio 1:1. The human colon adenocarcinoma cell line HT-29 [65] was grown in McCoy’s 5A medium. All media were supplemented with 10% fetal calf serum (FCS), 100 units·mL^−1 penicillin, 100 µg∙mL^−1 streptomycin and 2 mM glutamine. All cells were grown at 37 °C in a humidified 5% carbon dioxide atmosphere.
(§2) In order to determine the cytotoxic effects of investigated inhibitors conventional MTT assay were used. 1 × 10^4 cells∙well^−1 were seeded in 96-well cell culture plates and cultivated for 24 h. Cell lines were exposed to increasing concentrations of the indicated inhibitor compounds, with untreated and DMSO-treated cells serving as control. After an incubation period of 48 h 10 µL of MTT solution (5 mg∙mL^−1 in PBS) were added and cells were incubated for 4 h. MTT-containing medium was carefully removed and 100 µL acidic isopropanol (0.04 N HCl in isopropanol) per well were added. For dissolution of formazan crystals plates were shaken for 30 min on an orbital shaker in the dark. Finally, dissolved crystals were measured spectrophotometrically at […]. All experiments were performed in triplicate with four technical replicates per assay. Results were normalized considering the mean optical density value of control wells as 100%. GraphPad Prism 6 (La Jolla, CA, USA) software was used to calculate EC50 values.

[19] = test system: Panc89 cells; experiment: MTT viability assay; type: cell-based, human; conditions: Homo sapiens, 48 h incubation, mean ± SD, n = 3
Experimental: as §1, §2

[20] = biological target: DNA-PK (Homo sapiens, UniProt P78527); experiment: ProQinase 33PanQinase selectivity profiling; type: biochemical; conditions: 100 nM, relative to control, read-out: Residual activity (%)
[21] = biological target: ASK1 (Homo sapiens, UniProt Q99683); experiment: ProQinase 33PanQinase selectivity profiling; type: biochemical; conditions: 100 nM, relative to control, read-out: Residual activity (%)
[22] = biological target: T8, ACV-R1B (Homo sapiens, UniProt P36896); experiment: ProQinase 33PanQinase selectivity profiling; type: biochemical; conditions: 100 nM, relative to control, read-out: Residual activity (%)
T8 construct: purchased ProQinase GmbH (Freiburg, Germany)

[23] = biological target: JNK2 (Homo sapiens, UniProt P45984); experiment: ProQinase 33PanQinase selectivity profiling; type: biochemical; conditions: 100 nM, relative to control, read-out: residual activity
[24] = biological target: DDR2 (Homo sapiens, UniProt Q16832); experiment: ProQinase 33PanQinase selectivity profiling; type: biochemical; conditions: 100 nM, relative to control, read-out: Residual activity (%)
[25] = biological target: T9, ACV-RL1 (Homo sapiens, UniProt P37023); experiment: ProQinase 33PanQinase selectivity profiling; type: biochemical; conditions: 100 nM, relative to control, read-out: Residual activity (%)
T9 construct: purchased ProQinase GmbH (Freiburg, Germany)

[26] = biological target: CDK8/CycC (Homo sapiens, UniProt P49336); experiment: ProQinase 33PanQinase selectivity profiling; type: biochemical; conditions: 100 nM, relative to control, read-out: Residual activity (%)
[27] = biological target: CAMKK2 (Homo sapiens, UniProt Q96RR4); experiment: ProQinase 33PanQinase selectivity profiling; type: biochemical; conditions: 100 nM, relative to control, read-out: Residual activity (%)
[28] = biological target: T10, CLK3 (Homo sapiens, UniProt P49761); experiment: ProQinase 33PanQinase selectivity profiling; type: biochemical; conditions: 100 nM, relative to control, read-out: Residual activity (%)
T10 construct: purchased ProQinase GmbH

[29] = biological target: T11, BRK (Homo sapiens, UniProt Q13882); experiment: ProQinase 33PanQinase selectivity profiling; type: biochemical; conditions: 100 nM, relative to control, read-out: Residual activity (%)
T11 construct: purchased ProQinase GmbH

[30] = biological target: CHK1 (Homo sapiens, UniProt O14757); experiment: ProQinase 33PanQinase selectivity profiling; type: biochemical; conditions: 100 nM, relative to control, read-out: Residual activity (%)
[31] = biological target: CDK3/CycC (Homo sapiens, UniProt Q00526); experiment: ProQinase 33PanQinase selectivity profiling; type: biochemical; conditions: 100 nM, relative to control, read-out: Residual activity (%)
[32] = biological target: B-RAF (Homo sapiens, UniProt P15056); experiment: ProQinase 33PanQinase selectivity profiling; type: biochemical; conditions: 100 nM, relative to control, read-out: Residual activity (%)
[33] = biological target: CDK3/CycE1 (Homo sapiens, UniProt Q00526); experiment: ProQinase 33PanQinase selectivity profiling; type: biochemical; conditions: 100 nM, relative to control, read-out: Residual activity (%)
Chain of CDK3/CycE1 (Q00526 whole entry): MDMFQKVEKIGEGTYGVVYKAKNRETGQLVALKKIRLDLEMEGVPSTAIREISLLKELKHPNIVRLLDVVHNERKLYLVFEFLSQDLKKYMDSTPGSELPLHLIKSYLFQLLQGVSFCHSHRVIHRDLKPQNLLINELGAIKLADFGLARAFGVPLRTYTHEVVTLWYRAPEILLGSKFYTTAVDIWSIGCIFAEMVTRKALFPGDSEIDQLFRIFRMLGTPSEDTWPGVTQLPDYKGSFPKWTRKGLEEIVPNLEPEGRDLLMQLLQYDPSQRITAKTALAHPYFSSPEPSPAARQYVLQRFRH
Chain of CDK3/CycE1 (P24864 whole entry partner): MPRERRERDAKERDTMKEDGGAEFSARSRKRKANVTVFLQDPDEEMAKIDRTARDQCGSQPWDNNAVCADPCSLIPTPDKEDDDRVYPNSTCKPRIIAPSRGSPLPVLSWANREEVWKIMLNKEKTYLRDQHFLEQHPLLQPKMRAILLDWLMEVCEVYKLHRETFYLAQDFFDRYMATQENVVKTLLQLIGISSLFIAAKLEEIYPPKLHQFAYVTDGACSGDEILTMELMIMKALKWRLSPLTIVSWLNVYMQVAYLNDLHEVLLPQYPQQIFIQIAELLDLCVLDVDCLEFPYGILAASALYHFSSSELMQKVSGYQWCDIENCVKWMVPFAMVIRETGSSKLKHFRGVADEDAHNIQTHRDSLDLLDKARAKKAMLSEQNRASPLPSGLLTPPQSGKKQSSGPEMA

T3 sequence (O60566 whole entry): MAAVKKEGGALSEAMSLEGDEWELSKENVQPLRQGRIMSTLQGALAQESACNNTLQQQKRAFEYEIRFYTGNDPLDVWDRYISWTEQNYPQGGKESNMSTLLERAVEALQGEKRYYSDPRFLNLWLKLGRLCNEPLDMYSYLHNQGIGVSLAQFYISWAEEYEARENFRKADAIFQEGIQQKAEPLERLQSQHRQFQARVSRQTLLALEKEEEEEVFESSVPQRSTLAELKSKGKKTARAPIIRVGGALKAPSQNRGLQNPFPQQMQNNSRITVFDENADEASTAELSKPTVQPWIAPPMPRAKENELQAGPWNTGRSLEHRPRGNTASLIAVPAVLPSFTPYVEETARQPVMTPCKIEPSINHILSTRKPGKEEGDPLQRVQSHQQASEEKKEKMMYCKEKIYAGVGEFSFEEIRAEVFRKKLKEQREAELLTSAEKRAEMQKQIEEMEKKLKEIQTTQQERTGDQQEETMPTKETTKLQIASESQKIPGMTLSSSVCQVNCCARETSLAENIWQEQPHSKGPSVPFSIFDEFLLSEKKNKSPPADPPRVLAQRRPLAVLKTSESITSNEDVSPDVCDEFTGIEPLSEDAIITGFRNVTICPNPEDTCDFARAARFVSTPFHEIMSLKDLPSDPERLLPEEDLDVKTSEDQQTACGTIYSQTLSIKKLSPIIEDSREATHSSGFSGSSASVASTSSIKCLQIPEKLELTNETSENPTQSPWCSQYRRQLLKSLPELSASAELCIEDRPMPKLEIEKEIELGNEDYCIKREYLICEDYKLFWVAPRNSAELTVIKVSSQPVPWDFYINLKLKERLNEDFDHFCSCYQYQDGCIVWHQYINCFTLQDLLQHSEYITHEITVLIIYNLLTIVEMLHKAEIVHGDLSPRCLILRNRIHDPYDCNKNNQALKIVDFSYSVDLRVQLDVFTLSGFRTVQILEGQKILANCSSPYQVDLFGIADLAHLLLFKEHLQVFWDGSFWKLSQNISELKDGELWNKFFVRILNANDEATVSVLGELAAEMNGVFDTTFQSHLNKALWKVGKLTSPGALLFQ
Chain of B-RAF (P15056 whole entry): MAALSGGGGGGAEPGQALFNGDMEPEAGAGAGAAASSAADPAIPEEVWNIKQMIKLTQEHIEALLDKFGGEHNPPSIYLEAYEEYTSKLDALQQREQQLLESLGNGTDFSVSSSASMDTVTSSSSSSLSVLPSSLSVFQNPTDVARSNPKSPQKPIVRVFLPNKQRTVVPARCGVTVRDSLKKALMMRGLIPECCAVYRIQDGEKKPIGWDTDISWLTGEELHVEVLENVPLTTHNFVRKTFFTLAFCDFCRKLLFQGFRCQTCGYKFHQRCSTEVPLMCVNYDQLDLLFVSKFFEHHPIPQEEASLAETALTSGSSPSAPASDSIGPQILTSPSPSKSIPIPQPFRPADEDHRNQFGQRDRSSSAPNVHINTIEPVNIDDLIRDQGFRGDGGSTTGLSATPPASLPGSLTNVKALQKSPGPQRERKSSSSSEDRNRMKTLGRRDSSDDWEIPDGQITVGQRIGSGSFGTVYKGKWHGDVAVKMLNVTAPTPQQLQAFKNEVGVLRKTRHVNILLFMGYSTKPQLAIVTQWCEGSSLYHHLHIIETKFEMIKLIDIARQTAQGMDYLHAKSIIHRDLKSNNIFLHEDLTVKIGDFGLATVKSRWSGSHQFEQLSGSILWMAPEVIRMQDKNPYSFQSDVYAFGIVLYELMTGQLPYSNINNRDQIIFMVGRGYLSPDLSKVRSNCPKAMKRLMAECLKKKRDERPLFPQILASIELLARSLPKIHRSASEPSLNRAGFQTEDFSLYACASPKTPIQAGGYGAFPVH
Chain of JNK2 (P45984 whole entry): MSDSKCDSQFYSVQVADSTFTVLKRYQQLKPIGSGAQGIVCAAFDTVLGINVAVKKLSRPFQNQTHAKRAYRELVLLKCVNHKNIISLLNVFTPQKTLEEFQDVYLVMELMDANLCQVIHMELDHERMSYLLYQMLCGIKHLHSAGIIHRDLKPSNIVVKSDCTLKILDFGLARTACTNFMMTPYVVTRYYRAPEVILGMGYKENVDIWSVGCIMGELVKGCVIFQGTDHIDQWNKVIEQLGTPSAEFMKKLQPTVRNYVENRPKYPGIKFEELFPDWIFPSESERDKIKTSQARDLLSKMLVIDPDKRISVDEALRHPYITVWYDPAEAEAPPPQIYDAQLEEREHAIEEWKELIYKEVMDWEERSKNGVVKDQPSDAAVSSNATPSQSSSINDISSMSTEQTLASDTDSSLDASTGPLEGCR
T7 sequence (Q07912 whole entry): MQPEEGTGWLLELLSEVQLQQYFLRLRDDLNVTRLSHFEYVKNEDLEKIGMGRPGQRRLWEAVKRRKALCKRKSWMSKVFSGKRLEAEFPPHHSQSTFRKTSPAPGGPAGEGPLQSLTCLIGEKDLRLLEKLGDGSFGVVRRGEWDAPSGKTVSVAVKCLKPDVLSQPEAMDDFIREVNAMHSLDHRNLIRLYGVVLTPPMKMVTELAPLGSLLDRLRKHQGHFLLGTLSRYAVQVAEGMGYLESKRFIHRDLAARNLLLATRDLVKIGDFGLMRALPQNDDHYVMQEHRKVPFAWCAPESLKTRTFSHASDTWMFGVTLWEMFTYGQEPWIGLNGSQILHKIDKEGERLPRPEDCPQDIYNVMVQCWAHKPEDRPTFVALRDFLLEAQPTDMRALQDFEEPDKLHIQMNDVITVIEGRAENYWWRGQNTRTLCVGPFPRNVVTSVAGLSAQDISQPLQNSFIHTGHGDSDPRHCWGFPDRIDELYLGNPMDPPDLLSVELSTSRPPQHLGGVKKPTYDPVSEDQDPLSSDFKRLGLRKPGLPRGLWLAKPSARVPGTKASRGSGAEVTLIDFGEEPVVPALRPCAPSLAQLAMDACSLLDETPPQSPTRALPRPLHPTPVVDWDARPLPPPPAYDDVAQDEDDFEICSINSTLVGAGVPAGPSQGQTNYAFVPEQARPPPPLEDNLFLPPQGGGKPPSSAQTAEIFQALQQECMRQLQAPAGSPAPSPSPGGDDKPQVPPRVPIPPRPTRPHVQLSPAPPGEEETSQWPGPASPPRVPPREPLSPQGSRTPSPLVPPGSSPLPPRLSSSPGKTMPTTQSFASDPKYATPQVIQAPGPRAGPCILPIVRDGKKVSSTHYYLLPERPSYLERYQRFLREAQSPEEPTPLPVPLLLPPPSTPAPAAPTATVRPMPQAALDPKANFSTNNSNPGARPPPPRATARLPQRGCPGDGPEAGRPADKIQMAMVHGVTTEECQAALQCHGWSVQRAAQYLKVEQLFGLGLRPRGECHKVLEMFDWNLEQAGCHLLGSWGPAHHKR
Chain of CDK3/CycC (Q00526 whole entry): as the sequence (Q00526 whole entry) above
Chain of CDK3/CycC (P24863 whole entry partner): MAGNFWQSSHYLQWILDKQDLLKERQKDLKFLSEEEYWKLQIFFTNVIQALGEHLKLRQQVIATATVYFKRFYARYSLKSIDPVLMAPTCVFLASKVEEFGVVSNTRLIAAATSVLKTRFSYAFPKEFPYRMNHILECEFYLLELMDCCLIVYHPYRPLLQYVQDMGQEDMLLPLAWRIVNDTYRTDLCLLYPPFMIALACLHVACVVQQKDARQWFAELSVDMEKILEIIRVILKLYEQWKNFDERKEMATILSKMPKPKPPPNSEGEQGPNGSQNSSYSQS
Chain of Aurora-B (Q96GD4 whole entry): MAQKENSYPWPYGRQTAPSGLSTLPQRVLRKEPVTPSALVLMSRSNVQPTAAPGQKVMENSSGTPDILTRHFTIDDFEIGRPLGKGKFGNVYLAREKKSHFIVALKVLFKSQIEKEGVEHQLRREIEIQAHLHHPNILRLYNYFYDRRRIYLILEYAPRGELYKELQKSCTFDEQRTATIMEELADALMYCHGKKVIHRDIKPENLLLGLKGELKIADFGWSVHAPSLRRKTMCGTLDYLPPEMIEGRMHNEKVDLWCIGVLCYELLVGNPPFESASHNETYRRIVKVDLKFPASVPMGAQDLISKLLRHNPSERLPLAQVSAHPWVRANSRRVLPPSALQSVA

What does the source list for `COc1ccc(OC)c(CCC(=O)Nc2cc(-c3nc(SC)[nH]c3-c3ccc(F)cc3)ccn2)c1` [11b, 3-(2,5-Dimethoxyphenyl)-N-(4-(5-(4-fluorophenyl)-2-(methylthio)-1H-imidazol-4-yl)-pyridin-2-yl)-propanamide]?
remaining activity at 0.1 µM [1]: 86%; remaining activity at 0.1 µM [2]: 97%; remaining activity at 0.1 µM [3]: 94%; remaining activity at 0.1 µM [4]: 91%; remaining activity at 0.1 µM [5]: 102%; remaining activity at 0.1 µM [6]: 77%; remaining activity at 0.1 µM [7]: 102%; remaining activity at 0.1 µM [8]: 97%; remaining activity at 0.1 µM [9]: 98%; remaining activity at 0.1 µM [10]: 105%; remaining activity at 0.1 µM [11]: 101%; remaining activity at 0.1 µM [12]: 90%; remaining activity at 0.1 µM [13]: 92%; remaining activity at 0.1 µM [14]: 96%; remaining activity at 0.1 µM [15]: 89%; selectivity score S(50) ([16]; 321 protein kinases, calculated in accordance to Karaman et al.): 0.027; additional kinases with residual activities less than 50% apart from CK1δ and CK1ε ([16]; panel of 321 protein kinases): six; remaining activity at 0.1 µM [17]: 99%; EC50 [18]: 3.5 ± 0.3 µM; EC50 [19]: 1.5 ± 0.4 µM; remaining activity at 0.1 µM [20]: 95%; remaining activity at 0.1 µM [21]: 93%; remaining activity at 0.1 µM [22]: 101%; remaining activity at 0.1 µM [23]: 21%; remaining activity at 0.1 µM [24]: 101%; remaining activity at 0.1 µM [25]: 99%; remaining activity at 0.1 µM [26]: 90%; remaining activity at 0.1 µM [27]: 96%; remaining activity at 0.1 µM [28]: 98%; remaining activity at 0.1 µM [29]: 98%; remaining activity at 0.1 µM [30]: 92%; remaining activity at 0.1 µM [31]: 95%; remaining activity at 0.1 µM [32]: 91%; remaining activity at 0.1 µM [33]: 98%
